Counter-ions that a name gives are not always drawn. Like-named read-outs stand apart in the source and are kept apart here.
Assay type: in vivo
Details: 5 mg/kg on the basis of DOPA, into the femoral vein, SD rats
Description: The distribution and residence in brain of the compounds according to the present invention were evaluated as follows.
Blood samples were taken out from abdominal aorta after a certain period of […]. Immediately after the exsanguination, whole brain was removed. Experiments were carried out with 3 rats at each blood sampling point.
The DOPA concentration in the whole brain was determined in accordance with the method "New Biochemical Experiment Course, Vol. 11, Neurobiochemistry,p. 289-290 (edited by Biochemical Society, Japan, published by Tokyo Kagaku-Dojin, 1990)." As the controls, the Boc-eliminated Compound D and DOPA were administered in the same manner as above to determine the DOPA concentration.

| Area under the curve of concentration (AUC) of DOPA in brain (Time 0-4 hr) [ng·min/g] | Area under the curve of concentration (AUC) of DOPA in brain (Time 0-2 hr) [ng·min/g] | SMILES |
| --- | --- | --- |
| 10626 | – | C=CCSS/C(CCOC(=O)C(N)Cc1ccc(OC(=O)C(C)(C)C)c(OC(=O)C(C)(C)C)c1)=C(/C)N(C=O)Cc1cnc(C)nc1N (stereo not drawn) [35 (b), N-[(4-amino-2-methyl-5-pyrimidyl)methyl]-N-[4-[2-amino-3-(3,4-dipivaloyloxyphenyl)propionyl]oxy-1-methyl-2-[(2-propenyl)dithio]-1-butenyl]formamide] |
| – | 34595 | C/C(=C(\CCOC(=O)C(N)Cc1ccc(OC(=O)C(C)(C)C)c(OC(=O)C(C)(C)C)c1)SSC(C)C)N(C=O)Cc1cnc(C)nc1N (stereo not drawn) [Example 30 (b), N-[(4-amino-2-methyl-5-pyrimidyl)methyl]-N-[4-[2-amino-3-(3,4-dipivaloyloxyphenyl)propionyl]oxy-1-methyl-2-[(2-propyl)dithio]-1-butenyl]formamide hydrochloride] |

Continued, compound first:

| SMILES | Area under the curve of concentration (AUC) of DOPA in brain (Time 0-4 hr) [ng·min/g] | Area under the curve of concentration (AUC) of DOPA in brain (Time 0-2 hr) [ng·min/g] |
| --- | --- | --- |
| CC(=C(CCOC(=O)[C@@H](N)Cc1ccc(OC(=O)C(C)(C)C)c(OC(=O)C(C)(C)C)c1)SSC(C)C)N(C)C=O [3 (b)] | 82476 | – |
| C/C(=C(\CCOC(=O)C(N)Cc1ccc(OC(=O)C(C)(C)C)c(OC(=O)C(C)(C)C)c1)SSCC1CCCO1)N(C=O)Cc1cnc(C)nc1N (stereo not drawn) [29 (b), N-[(4-amino-2-methyl-5-pyrimidyl)methyl]-N-[4-[2-amino-3-(3,4-dipivaloyloxyphenyl)propionyl]oxy-1-methyl-2-[(tetrahydrofurfuryl)dithio]-1-butenyl]formamide] | 7151 | 6659 |
| CC(C)(C)C(=O)Oc1ccc(C[C@H](N)C(=O)O)cc1OC(=O)C(C)(C)C [Boc-elimination of Compound D, reference compound] | 3277 | 3169 |
| N[C@@H](Cc1ccc(O)c(O)c1)C(=O)O [DOPA, 3,4-dihydroxy phenylalanine, reference compound] | 6035 | 6035 |
